What is called GI50 is the concentration giving 50% growth inhibition. The TGI is the concentration at which net growth stops.

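Assay format: 96-well plates, 48-hour exposure. At the GI50, growth is halved. TGI denotes the concentration required for complete inhibition of growth.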

Test systems include SK-MEL-5 melanoma; NCI/ADR-RES ovarian; OVCAR-5 ovarian; SF-268 CNS; SNB-19 CNS; SN12C renal; PC-3 prostate; NCI-H226 lung; SK-MEL-28 melanoma; MDA-MB-231 breast.
Holding throughout (experiment): DTP human tumour cell line panel, 48 h

In the case of `O=C(NNc1cnccn1)c1nc2cc(F)ccc2n2cccc12`, the GI50 was 1.07 µM with SK-MEL-5 melanoma; 0.461 µM with NCI/ADR-RES ovarian; 0.828 µM with OVCAR-5 ovarian; 0.551 µM with SF-268 CNS; 0.7 µM with SNB-19 CNS; 0.925 µM with SN12C renal. Besides, the GI50 in the assay on PC-3 prostate was 0.527 µM; in the assay with NCI-H226 lung, 1.57 µM; in the assay on SK-MEL-28 melanoma, 1.08 µM; in the assay on MDA-MB-231 breast, 0.597 µM. Further, the TGI with SK-MEL-5 melanoma was 3.13 µM; in the assay with NCI/ADR-RES ovarian, more than 44.8 µM; in the assay with OVCAR-5 ovarian, more than 100 µM; in the assay with SF-268 CNS it was more than 100 µM; with SNB-19 CNS, more than 100 µM; in the assay on SN12C renal, more than 100 µM. Moreover, the total growth inhibition concentration (TGI) in the assay with PC-3 prostate, in the assay on NCI-H226 lung, with SK-MEL-28 melanoma and in the assay on MDA-MB-231 breast was more than 100 µM each time.
As for `Cn1cc(S(=O)(=O)N2CCC3=Cc4c(cnn4-c4ccc(F)cc4)C[C@]3(C(=O)c3cc(C(F)(F)F)ccn3)C2)cn1`, the GI50 in the assay on SK-MEL-5 melanoma was 57.7 µM; with NCI/ADR-RES ovarian, more than 100 µM; in the assay with OVCAR-5 ovarian, more than 100 µM; in the assay on SF-268 CNS, more than 100 µM; in the assay with SNB-19 CNS, more than 100 µM; in the assay on SN12C renal it was more than 100 µM. In addition, the GI50 in the assay with PC-3 prostate is 31.4 µM; in the assay on NCI-H226 lung, 81.1 µM; in the assay on SK-MEL-28 melanoma it was more than 100 µM; with MDA-MB-231 breast, more than 100 µM. In addition, the total growth inhibition concentration (TGI) with SK-MEL-5 melanoma, with NCI/ADR-RES ovarian, with OVCAR-5 ovarian, in the assay on SF-268 CNS, in the assay with SNB-19 CNS and with SN12C renal was more than 100 µM throughout. In addition, the concentration for total growth inhibition (TGI) in the assay with PC-3 prostate, in the assay on NCI-H226 lung, in the assay with SK-MEL-28 melanoma and with MDA-MB-231 breast was more than 100 µM in each case.
As for `COc1ccc(-c2noc(N)c2-c2cc(OC)c3c(c2)OCO3)cc1`, the GI50 in the assay on SK-MEL-5 melanoma is 3.14 µM; in the assay on NCI/ADR-RES ovarian, 0.721 µM; in the assay with OVCAR-5 ovarian, 5.63 µM; with SF-268 CNS it was 5.47 µM; with SNB-19 CNS it was 10.6 µM; in the assay on SN12C renal it was 4.14 µM. The GI50 with PC-3 prostate was 3.36 µM; in the assay on NCI-H226 lung, 18 µM; in the assay on SK-MEL-28 melanoma, 6.31 µM; with MDA-MB-231 breast, 2.76 µM. The total growth inhibition concentration (TGI) in the assay with SK-MEL-5 melanoma is 21.2 µM; in the assay with OVCAR-5 ovarian, more than 82.2 µM; in the assay on SF-268 CNS, 98.9 µM; in the assay on SNB-19 CNS it was more than 100 µM; with SN12C renal, more than 100 µM; in the assay with PC-3 prostate, more than 100 µM. The total growth inhibition concentration (TGI) in the assay with NCI-H226 lung is more than 100 µM; in the assay with SK-MEL-28 melanoma, more than 100 µM; in the assay with MDA-MB-231 breast, 60.9 µM.
Regarding `COc1ccc(/C=C/c2cnccn2)cc1OC`, the total growth inhibition concentration (TGI) in the assay with SK-MEL-5 melanoma, with NCI/ADR-RES ovarian, in the assay with OVCAR-5 ovarian, with SF-268 CNS, in the assay on SNB-19 CNS and with SN12C renal was more than 10 µM each time. The TGI in the assay on PC-3 prostate, in the assay with NCI-H226 lung, in the assay on SK-MEL-28 melanoma and with MDA-MB-231 breast was more than 10 µM in each case.
For `Oc1ccc(Oc2cnc3ccccc3n2)cc1`, the GI50 with SK-MEL-5 melanoma was 55.7 µM; in the assay with NCI/ADR-RES ovarian, more than 100 µM; in the assay on OVCAR-5 ovarian, more than 100 µM; in the assay on SF-268 CNS it was 50.3 µM; in the assay on SNB-19 CNS it was more than 100 µM; in the assay with SN12C renal, more than 100 µM. Also, the GI50 in the assay on PC-3 prostate was 54.7 µM; in the assay with NCI-H226 lung it was more than 100 µM; with SK-MEL-28 melanoma it was more than 100 µM; with MDA-MB-231 breast, more than 100 µM. Moreover, the TGI in the assay on SK-MEL-5 melanoma, in the assay with NCI/ADR-RES ovarian, in the assay with OVCAR-5 ovarian, with SF-268 CNS, with SNB-19 CNS and with SN12C renal was more than 100 µM in each case. Also, the concentration for total growth inhibition (TGI) with PC-3 prostate, in the assay with NCI-H226 lung, in the assay on SK-MEL-28 melanoma and in the assay with MDA-MB-231 breast was more than 100 µM throughout.
As to `COc1cc2c3c(n(CCCN(C)CCO)c(=O)c2cc1OC)-c1cc2c(cc1C3=O)OCO2`, the GI50 was 4.77 µM in the assay on SK-MEL-5 melanoma; 3.21 µM in the assay on NCI/ADR-RES ovarian; 51.7 µM in the assay on OVCAR-5 ovarian; more than 22.1 µM in the assay with SF-268 CNS; 8.32 µM with SNB-19 CNS; 2.75 µM in the assay on SN12C renal. The GI50 is 8.47 µM in the assay with PC-3 prostate, 1.7 µM with NCI-H226 lung, more than 80.2 µM in the assay on SK-MEL-28 melanoma and 14 µM in the assay on MDA-MB-231 breast. Also, the total growth inhibition concentration (TGI) in the assay on SK-MEL-5 melanoma is 33.5 µM; in the assay with NCI/ADR-RES ovarian, 31.5 µM; with OVCAR-5 ovarian it was more than 100 µM; in the assay on SF-268 CNS, more than 100 µM; in the assay on SNB-19 CNS, more than 100 µM; in the assay on SN12C renal, more than 100 µM. The TGI is more than 62.6 µM in the assay with PC-3 prostate, 26.5 µM with NCI-H226 lung, more than 100 µM in the assay with SK-MEL-28 melanoma and 49.9 µM in the assay on MDA-MB-231 breast.
On to `Clc1nc(Cl)c2ncn(Cc3ccccc3Cn3cnc4c(Cl)nc(Cl)nc43)c2n1`, for which the GI50 in the assay on SK-MEL-5 melanoma was 1.81 µM; in the assay with NCI/ADR-RES ovarian it was 7.04 µM; in the assay with OVCAR-5 ovarian, 5.09 µM; with SF-268 CNS, 3.05 µM; with SNB-19 CNS, 2.9 µM; with SN12C renal, 2.31 µM. In addition, the GI50 in the assay on PC-3 prostate was 2.04 µM; in the assay on NCI-H226 lung, 2.76 µM; in the assay on SK-MEL-28 melanoma, 2.96 µM; with MDA-MB-231 breast it was 1.55 µM. Further, the TGI in the assay with SK-MEL-5 melanoma was 4.13 µM; in the assay on NCI/ADR-RES ovarian, 17.2 µM; in the assay on OVCAR-5 ovarian it was 10.4 µM; in the assay with SF-268 CNS it was 12.3 µM; with SNB-19 CNS it was more than 26.1 µM; in the assay on SN12C renal, 7.24 µM. Further, the concentration for total growth inhibition (TGI) in the assay on PC-3 prostate came to 5.53 µM; in the assay with NCI-H226 lung, 7.16 µM; in the assay on SK-MEL-28 melanoma it was 11.8 µM; in the assay with MDA-MB-231 breast, 3.01 µM.
Turning to `COc1ccc(-c2ccc(NNC(=O)c3ccc(F)cc3)nn2)cc1OC`, the GI50 is 45 µM with SK-MEL-5 melanoma; 43.2 µM in the assay with NCI/ADR-RES ovarian; more than 100 µM with OVCAR-5 ovarian; 79.8 µM in the assay on SF-268 CNS; more than 100 µM with SNB-19 CNS; more than 100 µM in the assay with SN12C renal. In addition, the GI50 was 50.5 µM with PC-3 prostate, 71.8 µM in the assay with NCI-H226 lung, more than 100 µM with SK-MEL-28 melanoma and 93 µM with MDA-MB-231 breast. The TGI in the assay on SK-MEL-5 melanoma, in the assay on NCI/ADR-RES ovarian, with OVCAR-5 ovarian, in the assay with SF-268 CNS, in the assay on SNB-19 CNS and with SN12C renal was more than 100 µM each time. The total growth inhibition concentration (TGI) with PC-3 prostate, in the assay on NCI-H226 lung, in the assay with SK-MEL-28 melanoma and in the assay with MDA-MB-231 breast was more than 100 µM in each case.
With `O=C(Nc1ccc(Cl)cc1)Nc1nccs1`, the GI50 is 0.514 µM in the assay on SK-MEL-5 melanoma; 0.575 µM in the assay with NCI/ADR-RES ovarian; 12.8 µM in the assay on OVCAR-5 ovarian; 8.53 µM in the assay on SF-268 CNS; 3.67 µM with SNB-19 CNS; 5.22 µM with SN12C renal. Also, the GI50 in the assay on PC-3 prostate is 2.79 µM; in the assay with NCI-H226 lung, 4.46 µM; in the assay with SK-MEL-28 melanoma, 13.8 µM; with MDA-MB-231 breast, 3.18 µM. For the same compound, the TGI in the assay on SK-MEL-5 melanoma was 15.3 µM; in the assay on NCI/ADR-RES ovarian, 30.1 µM; in the assay with OVCAR-5 ovarian, more than 100 µM; in the assay on SF-268 CNS, 63.1 µM; in the assay on SNB-19 CNS, more than 100 µM; in the assay with SN12C renal it was more than 100 µM. For the same compound, the TGI in the assay with PC-3 prostate is 40.3 µM; in the assay with NCI-H226 lung it was 57 µM; with SK-MEL-28 melanoma it was more than 100 µM; in the assay with MDA-MB-231 breast, 41.5 µM.
Take `COc1ccc2c(c1)C(C)Cc1c(ncnc1-n1cnc3ccccc31)N2C` (centres undefined): the GI50 with SK-MEL-5 melanoma is 0.368 µM; in the assay with NCI/ADR-RES ovarian, 0.395 µM; in the assay on OVCAR-5 ovarian, 6.21 µM; with SF-268 CNS it was 0.822 µM; in the assay on SNB-19 CNS it was 0.695 µM; in the assay with SN12C renal, 0.958 µM. In addition, the concentration for 50% growth inhibition (GI50) in the assay on PC-3 prostate is 0.409 µM; in the assay with NCI-H226 lung, 12.4 µM; with SK-MEL-28 melanoma it was 10.1 µM; with MDA-MB-231 breast, 1.04 µM. Also, the TGI is 1.89 µM in the assay with SK-MEL-5 melanoma; more than 100 µM in the assay with NCI/ADR-RES ovarian; 43.9 µM with OVCAR-5 ovarian; 18.1 µM in the assay with SF-268 CNS; 27.5 µM in the assay with SNB-19 CNS; 34 µM in the assay on SN12C renal. The total growth inhibition concentration (TGI) in the assay with PC-3 prostate was found to be 17.5 µM; in the assay on NCI-H226 lung it was 27.7 µM; in the assay with SK-MEL-28 melanoma, 22.9 µM; in the assay on MDA-MB-231 breast it was 4.35 µM.
Take `Cn1c(=S)c2[nH]c(SCCCc3ccccc3)nc2n(C)c1=O`: the TGI was 33.5 µM with SK-MEL-5 melanoma; more than 100 µM in the assay on NCI/ADR-RES ovarian; 93.3 µM in the assay with OVCAR-5 ovarian; more than 100 µM with SF-268 CNS; 53.6 µM with SNB-19 CNS; more than 100 µM in the assay on SN12C renal. The TGI in the assay on PC-3 prostate is more than 100 µM; in the assay with NCI-H226 lung it was 81.1 µM; in the assay with SK-MEL-28 melanoma, more than 100 µM; in the assay on MDA-MB-231 breast, more than 100 µM.
Consider `CNC(C)[C@H]1CCC2C3CC=C4C(=O)[C@@H](NC(=O)C=C(C)C)CC[C@]4(C)C3CC[C@@]21C` (some centres undefined), for which the GI50 was 1.14 µM in the assay with SK-MEL-5 melanoma; 3.44 µM with NCI/ADR-RES ovarian; 2.53 µM with OVCAR-5 ovarian; 1.6 µM in the assay on SF-268 CNS; 5.26 µM with SNB-19 CNS; 2.46 µM in the assay with SN12C renal. For the same compound, the GI50 was 1.9 µM in the assay on PC-3 prostate, 2.53 µM with NCI-H226 lung, 1.69 µM in the assay on SK-MEL-28 melanoma and 1.89 µM with MDA-MB-231 breast. For the same compound, the TGI came out at 2.39 µM in the assay on SK-MEL-5 melanoma; 15 µM with NCI/ADR-RES ovarian; 10.9 µM with OVCAR-5 ovarian; 3.66 µM with SF-268 CNS; 17.4 µM in the assay on SNB-19 CNS; 10.5 µM in the assay with SN12C renal. Further, the total growth inhibition concentration (TGI) in the assay with PC-3 prostate came out at 11.5 µM; in the assay with NCI-H226 lung, 14.1 µM; with SK-MEL-28 melanoma it was 3.3 µM; in the assay with MDA-MB-231 breast, 4.74 µM.
